Test results from patent publication US20120095100A1, “USE OF A COMBINATION OF D-ASPARTIC AND L-ASPARTIC ACIDS OR SALTS THEREOF FOR THE TREATMENT OF MALE INFERTILITY” (MERCK SERONO S.P.A., priority 2009, published 2012).
“And” between values parts separate entries of the source, which are not always exact repeats. Identical values can stand only once. Like-named read-outs stand apart in the source and are kept apart here. Marks after values point to notes of the source that are not given here.

Experiments:
[1] = tested on: spermatozoa in rabbit seminal liquid; test: Effect of sodium D-aspartate and sodium D-/L-aspartate mixtures on number and motility of spermatozoa in rabbit seminal liquid; format: in vivo; conditions: rabbits, 0.25 g/day total mixed with food, 20 days
From the text: The study has been carried out on two groups of rabbits (10 rabbits for each group) in order to test the effect of sodium D-aspartate and of the sodium D-aspartate in combination with a determined amount of sodium L-aspartate on the quality of seminal liquid, i.e. on number of spermatozoa/ml and on the progressive quick motility thereof.
The experiment involved the ingestion by a group of 10 male adult rabbits, 6 month old, of an amount of sodium D-aspartate corresponding to 0.250 g daily ([…] of body weight) over 20 days. Practically, sodium D-aspartate was mixed with food in such amount that the food daily ingested by the rabbit contained 0.250 g of sodium D-aspartate. In the same way, in a second experiment carried out on another group of 10 same age male adult rabbits, a mixture consisting of 0.2 g of sodium D-aspartate and 0,05 g of sodium L-aspartate (80% D-Asp: 20% L-Asp) was administered. Before the start of the experiment and at the end of drug ingestion lasting 20 days, from every rabbit a sperm sample obtained by stimulation using an artificial vagina has been collected and the total number of spermatozoa/ml of ejaculate and motility thereof have been determined.
The number of the spermatozoa and progressive quick motility are determined according to (World Health Organization) WHO guidelines using a Makler Chamber for the count (Sefi Medtstl Instrument, Haifa, Israel) and in the same place the progressive quick motility has been determined. The rabbit semen was 1:10 diluted in an iso-osmotic solution due to excessive concentration.
The study involved the administration of a mixture consisting of 0.125 g of sodium D-aspartate+0,125 g of sodium L-aspartate (D-Asp 50%: L-Asp 50%) to a group of 10 rabbits according to procedure of Example 2. […] In this case the production of the number of spermatozoa was increased by 25% and motility by 55% compared to controls showing that also in this case an improvement compared to D-aspartate alone was obtained but it was lower than mixture consisting of 80% D-aspartate and 20% L-aspartate.

[2] = tested on: testosterone in human serum; conditions: men 25-40 years, oral 3.12 g/day total, 30 days
From the text: (§4) The study involves the oral ingestion (after breakfast or main meal) by a group of 10 25-40 year old people of a daily dose consisting of 3.12 g of sodium D-aspartate (19,2 μmole of sodium D-aspartate; 0.27 μmol/kg of body weight for a 70 kg person) over 30 days. Another group of 10 25-40 year old people (after breakfast or main meal) ingested a daily dose of a mixture consisting of 2.49 g of sodium D-aspartate and 0.63 g of sodium L-aspartate (80% sodium D-aspartate and 20% sodium L-aspartate) for the same period.
(§5) LH and testosterone hormonal assays have been carried out using specific commercial kits for clinical chemical use.

[3] = tested on: LH (luteinizing hormone) in human serum; conditions: men 25-40 years, 30 days
From the text: as §4, §5

[4] = tested on: spermatozoa in human seminal liquid; test: Number and quality of spermatozoa in human seminal liquid after oral sodium D-aspartate or sodium D-/L-aspartate mixtures; format: in vivo; conditions: men 25-40 years, oral 3.12 g/day total, 30 days
From the text: (§1) Seminal liquid has been collected through masturbation after 3-5 abstinence days. The number of the spermatozoa and progressive quick motility thereof have been determined according to (World Health Organization) WHO guidelines using a Makler Chamber for the count (Sefi Medtstl Instrument, Haifa, Israel) and in the same place the progressive quick motility has been determined.
It is to be pointed out that this study has been carried out on selected subjects having a number of spermatozoa in seminal liquid from 15.000.000 to 20.000.000/ml, that is minimum threshold values within normal range. […] In this case therefore the action of D-aspartate stimulates their maturation to vital spermatozoa.

[5] = tested on: LH and testosterone values and spermatozoon number and motility; conditions: man, daily one or two 3 g doses, at least 30 days; cited from earlier work
[6] = tested on: luteinizing hormone (LH), growth hormone, prolactin (PRL) and testosterone in blood; conditions: rat, orally administered; cited from earlier work
[7] = tested on: spermatozoa in human seminal liquid; test: Number and quick progressive motility of spermatozoa in human seminal liquid after oral D-aspartic/L-aspartic acid; format: in vivo; conditions: men
From the text: (§2) Like ingestion procedure, the D-aspartic and L-aspartic acid mixture preferably was dispersed in a half filled glass containing water or fresh or stored fruit juice (orange, apple, pear, etc.), then stirred and ingested.
(§3) Before the start of the study and after 20 days of treatment in the morning from each subject blood has been collected and the concentration of LH (luteinizing hormone) and testosterone has been determined in serum obtained from said blood. Moreover, from every subject also the seminal liquid has been collected for which quick progressive motility together with total number spermatozoa/ml of sperm has been determined.
as §1, with “The seminal” for “Seminal”, “by” for “through”, “motility” for “motility thereof”

[8] = tested on: testosterone in human serum; test: Testosterone in human serum after oral D-aspartic/L-aspartic acid; format: in vivo; conditions: men, L-aspartic acid alone
From the text: as §2, §3

[9] = tested on: spermatozoa in rabbit seminal liquid; test: Effect of feed containing D-aspartic/L-aspartic acid on number and motility of spermatozoa in rabbit seminal liquid; format: in vivo; conditions: rabbits, about 1.14 g/day total in feed, 20 days
From the text: The study has been carried out on two groups of rabbits. […] A same age second group of 10 rabbits representing a control group (or placebo) was fed eat for 20 days with same type food as above prepared, but without the addition of D-aspartic and L-aspartic acids mixture. The experiments have been carried out in a rabbit breeding farm (“Potenza Breeders' Association”, Potenza, Italy). Before the start and at the end of the experiment from each rabbit a sperm sample has been collected by stimulation with an artificial vagina (see paper: “G. Macchia et al., DL-aspartic acid administration improve semen quality in rabbit bucks, published on “Animal Reproduction Science, 118, 337-343, 2010) and the total number of spermatozoa/ml of ejaculate and motility thereof have been determined.
The number of the spermatozoa and progressive quick motility are determined according to (World Health Organization) WHO guidelines using a Makler Chamber for the count (Sefi Medtstl Instrument, Haifa, Israel) and in the same place the progressive quick motility has been determined.
Also this study has been carried out on two groups of same age and weight rabbits as used for previous study. […] Also in this case seminal liquid has been collected before and after the experiment and then examined for spermatozoon number and motility thereof.
Also this study carried out on rabbits has been carried out in the same way as previous ones. […] Also in this case total amount of D-Asp+L-Asp ingested daily by rabbits was about 1.140 g.

[10] = tested on: LH (luteinizing hormone) in human serum; test: LH in human serum after oral D-aspartic/L-aspartic acid; format: in vivo; conditions: men, L-aspartic acid alone
From the text: as §2, §3

N[C@H](CC(=O)[O-])C(=O)[O-].[Na+].[Na+] [100% D-Aspartate, sodium D-aspartate]
% increment of number of spermatozoa vs before the treatment [1]: 19.3% | % increment of quick progressive spermatozoa vs before the treatment [1]: 37% | Immobile spermatozoa after ingestion (on 100 base) [1]: 18%* | Quick progressive spermatozoa after ingestion (on 100 base) [1]: 55%* | Slow spermatozoa after ingestion (on 100 base) [1]: 27%* | % increment of quick progressive spermatozoa vs before the treatment ([1]; listed as D-aspartate): 37% | Quick progressive spermatozoa after ingestion (on 100 base) ([1]; listed as D-aspartate): 55% | % increment of number of spermatozoa vs before the treatment ([1]; listed as sodium D-aspartate): 19,3% | % increment of quick progressive spermatozoa vs before the treatment ([1]; listed as sodium D-aspartate): 37% | Quick progressive spermatozoa after ingestion (on 100 base) ([1]; listed as sodium D-aspartate): 55% | Testosterone % increment vs before the treatment [2]: +31.2% | Testosterone after ingestion ([2]; average of 10): 6.3 ng/ml serum | Testosterone % increment vs before the treatment ([2]; listed as sodium D-aspartate): 31.2% | LH % increment vs before the treatment ([3]; oral 3.12 g/day total): +25.6% | LH after ingestion ([3]; oral 3.12 g/day total, average of 10): 5.4 mIU/ml serum | LH % increment vs before the treatment ([3]; oral 3.12 g/day total, listed as sodium D-aspartate): 25,6% | LH haematic value after ingestion ([3]; oral 3.12 g/day): 5.4 mUI/ml | % increase of quick progressive spermatozoa vs before the treatment [4]: +28% | % increase of total spermatozoa vs before the treatment [4]: +27% | Immobile spermatozoa after ingestion (on base 100) [4]: 30%* | Quick progressive spermatozoa after ingestion (on base 100) [4]: 45%* | Slow spermatozoa after ingestion (on base 100) [4]: 25%* | % increase of quick progressive spermatozoa vs before the treatment ([4]; listed as sodium D-aspartate): 28% | % increase of total spermatozoa vs before the treatment ([4]; listed as sodium D-aspartate): 27%

N[C@H](CC(=O)O)C(=O)O [D-aspartic acid]
LH and testosterone values and spermatozoon number and motility [5]: induced an increase | Blood LH, growth hormone, prolactin and testosterone [6]: temporary increase

N[C@@H](CC(=O)O)C(=O)O [L-aspartic acid]
Quick progressive motility of spermatozoa after treatment, individual subjects ([7]; % progressive quick of 100 observed spermatozoa, one line per subject 1°-10°): 25% and 19% and 35% (2×) and 18% and 40% and 45% and 22% and 27% and 39% | Average % increment of quick progressive motility ([7]; average ± SD of 10 subjects): +35.6% ± 9.05 | % increment of number of spermatozoa, individual subjects ([7]; one line per subject 1°-10°): 26% and 40% and 20% and 33% and 36% and 15% and 13% (2×) and 19% and 12% | % increment of quick progressive motility, individual subjects ([7]; one line per subject 1°-10°): 38% and 26% and 45% and 50% and 25% (2×) and 28% and 37% and 42% and 40% | Number of spermatozoa in seminal liquid after treatment, individual subjects ([7]; one line per subject 1°-10° (20 days for the 80/20 mixture)): 8 × 10^6 and 35 × 10^6 and 6 × 10^6 and 20 × 10^6 and 41 × 10^6 and 3 × 10^6 and 34 × 10^6 and 51 × 10^6 and 25 × 10^6 and 18 × 10^6 | Testosterone haematic hormone before and after therapy [8]: unaltered | Immobile after treatment (on base 100) [9]: 29% | Quick motility after treatment (on base 100) [9]: 41% | Slow motility after treatment (on base 100) [9]: 30% | LH haematic hormone before and after therapy [10]: unaltered
